Where “and” joins values, the source holds several entries; their conditions need not be identical. Identical values can stand only once.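 All cell lines were grown in 96-well plates and treated with compound for 48 hours. Abbreviation: GI50, concentration required for 50% inhibition of growth. TGI denotes the concentration required for complete inhibition of growth.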
Columns and labels:
Assay in all cases: inhibition of tumour cell growth, NCI panel, 48 h
[1] = test system: CCRF-CEM leukemia
[2] = test system: PC-3 prostate
[3] = test system: EKVX NSCLC
[4] = test system: TK-10 renal
[5] = test system: NCI-H226 lung
[6] = test system: A549 NSCLC
[7] = test system: HT29 colon
[8] = test system: OVCAR-4 ovarian
[9] = test system: OVCAR-3 ovarian

In the case of `COc1ccc(-c2cn3c(n2)sc2cc(C)ccc23)cc1`, the TGI [1] is reported as > 100 µM, the TGI [2] is reported as 50.9 µM and the TGI [3] is reported as 39.7 µM. For the same compound, the TGI [4] was 47.3 µM, the TGI [5] was 62.2 µM and the TGI [6] was > 100 µM. For the same compound, the TGI [7] was > 100 µM, the TGI [8] was 83.8 µM and the TGI [9] was > 100 µM.

For `COC1C(O)=C2C(=O)OC(C)(O)/C=C/C=C\C=C/C=C/C(c3ccccc3)NC(=O)/C=C/C=C/C=C/C=C/C2(C)C1O` (stereo not drawn), the GI50 [1] was < 0.001 µM, the TGI [2] was 0.136 µM and 0.159 µM and the GI50 [3] was 0.0624 µM. The TGI [3] was 0.122 µM and 0.237 µM, the TGI [4] was 0.0668 µM and the TGI [5] was 0.156 µM. The TGI [6] was 0.0253 µM, the TGI [7] was 0.0161 µM and 0.0687 µM and the TGI [8] was 0.248 µM and 0.0594 µM. For the same compound, the GI50 [9] was 0.114 µM and the TGI [9] was 0.218 µM and 0.349 µM.

In the case of `COC(=O)c1c(O)ccc2c1c1c(n2C)C(=O)c2ccccc2C1=O`, the TGI [1] is reported as 51.9 µM, the TGI [2] is reported as > 100 µM and the TGI [3] is reported as > 100 µM. For the same compound, the TGI [4] was 86.4 µM, the TGI [5] was > 100 µM and the TGI [6] was > 100 µM. For the same compound, the TGI [7] was > 100 µM, the TGI [8] was 80.6 µM and the TGI [9] was > 100 µM.

For `COC(=O)C(Cc1ccccc1)NC(=O)CNC(=O)CSc1nnc(COc2ccc(Cl)cc2)n1-c1ccccc1` (stereo not drawn), the TGI [1] was 7.42 µM, the TGI [2] was 31.3 µM and the TGI [3] was 39.9 µM. The TGI [4] was 27.7 µM, the TGI [5] was 36.5 µM and the TGI [6] was 34.5 µM. It also gave a TGI [7] of 35.3 µM, a TGI [8] of 21.7 µM and a TGI [9] of 30.9 µM.

For `CCCCCCCCOCC1S(=O)(=O)OCCOS1(=O)=O`, the TGI [1] was > 100 µM, the TGI [2] was > 100 µM and the TGI [3] was > 100 µM. The TGI [4] was > 100 µM, the TGI [5] was > 100 µM and the TGI [6] was > 100 µM. For the same compound, the TGI [7] was > 100 µM, the TGI [8] was > 100 µM and the TGI [9] was > 100 µM.

`COc1cccc(C2c3cc4c(cc3OC(N3CCOCC3)C2C)OCO4)c1O` (stereo not drawn) was tested, and the TGI [1] was 35.3 µM, the TGI [2] was > 58.6 µM and the TGI [3] was 98.9 µM. The TGI [4] was 83.6 µM, the TGI [5] was 20.9 µM and the TGI [6] was 66.5 µM. For the same compound, the TGI [7] was 28.8 µM, the TGI [8] was > 100 µM and the TGI [9] was 30.8 µM.

For `c1ccc2c(c1)SC1Sc3ccccc3[S+]21` (stereo not drawn), the TGI [1] was 49.6 µM, the TGI [2] was > 100 µM and the TGI [3] was 52.5 µM. For the same compound, the TGI [4] was 55.4 µM, the TGI [5] was 96.9 µM and the TGI [6] was > 100 µM. For the same compound, the TGI [7] was > 85.3 µM, the TGI [8] was > 100 µM and the TGI [9] was 46 µM.

`CCCCCc1c(CCCC)c(=O)[nH]c2cc(CNCC(OC)OC)ccc12` showed a TGI [1] of 19.2 µM, a TGI [2] of 25.5 µM and a TGI [3] of 31.3 µM. For the same compound, the TGI [4] was 28.7 µM, the TGI [5] was 40.6 µM and the TGI [6] was 25.7 µM. It also gave a TGI [7] of 12.4 µM, a TGI [8] of 30.9 µM and a TGI [9] of 32.3 µM.

`NC1CCC(c2cc3ccccc3s2)(N2CCCCC2)CC1` (stereo not drawn) was tested, and the TGI [1] was 2.45 µM, the TGI [2] was 3.59 µM and the TGI [3] was 11.9 µM. It also gave a TGI [4] of 19 µM, a TGI [5] of 43.7 µM and a TGI [6] of 8.46 µM. For the same compound, the TGI [7] was 2.45 µM, the TGI [8] was 15.2 µM and the TGI [9] was 2.81 µM.

In the case of `Nc1cc(CO)cc(Nc2c3ccccc3nc3occc23)c1`, the TGI [1] is reported as > 100 µM, the TGI [2] is reported as > 100 µM and the TGI [3] is reported as > 100 µM. For the same compound, the TGI [4] was > 100 µM, the TGI [5] was > 100 µM and the TGI [6] was > 100 µM. The TGI [7] was 30.5 µM, the TGI [8] was 54.5 µM and the TGI [9] was > 100 µM.

For `Cc1nc2ccccc2n1CCc1nc2ccccc2s1`, the TGI [1] was > 100 µM, the TGI [2] was > 100 µM and the TGI [3] was > 100 µM. For the same compound, the TGI [4] was > 100 µM, the TGI [5] was 42.9 µM and the TGI [6] was > 100 µM. For the same compound, the TGI [7] was > 100 µM, the TGI [8] was > 100 µM and the TGI [9] was > 100 µM.

For `CN(C)CCCOC(=O)C(O)(Cc1ccccc1)C1CC1` (stereo not drawn), the TGI [1] was > 100 µM, the TGI [2] was > 100 µM and the TGI [3] was > 100 µM. The TGI [4] was > 100 µM, the TGI [5] was > 100 µM and the TGI [6] was > 100 µM. For the same compound, the TGI [7] was > 100 µM, the TGI [8] was > 100 µM and the TGI [9] was > 100 µM.

`COC(=O)/C=C1/OC(c2ccccc2)=C(Cl)C1=O` gave a TGI [1] of 19.9 µM, a TGI [2] of 31.6 µM and a TGI [3] of 44.5 µM. For the same compound, the TGI [4] was 51.6 µM, the TGI [5] was > 84.6 µM and the TGI [6] was 69.4 µM. It also gave a TGI [7] of 48.4 µM, a TGI [8] of 39 µM and a TGI [9] of 33.8 µM.

`CN(C)Cc1cc(N=Nc2ccc(Cl)c(Cl)c2)ccc1O` gave a TGI [1] of 20 µM, a TGI [2] of 23.8 µM and a TGI [3] of 25.6 µM. It also gave a TGI [4] of 22.9 µM, a TGI [5] of 40.7 µM and a TGI [6] of 27.5 µM. It also gave a TGI [7] of 20.4 µM, a TGI [8] of 20.8 µM and a TGI [9] of 19.2 µM.

Work on `CCn1c2c(c3c(C(=O)OC)c(O)ccc31)C(=O)c1ccccc1C2=O` yielded a TGI [1] of 43.6 µM, a TGI [2] of 42.7 µM and a TGI [3] of 59.7 µM. For the same compound, the TGI [4] was > 100 µM, the TGI [5] was 34 µM and the TGI [6] was 38.9 µM. The TGI [7] was 36.5 µM, the TGI [8] was 37.5 µM and the TGI [9] was 63.1 µM.

`Cc1ccc2[nH]c(=O)c(-c3cnc(=O)[nH]n3)c(O)c2c1` was tested, and the TGI [1] was > 100 µM, the TGI [2] was > 100 µM and the TGI [3] was > 100 µM. For the same compound, the TGI [4] was > 100 µM, the TGI [5] was > 100 µM and the TGI [6] was > 100 µM. For the same compound, the TGI [7] was > 100 µM, the TGI [8] was > 100 µM and the TGI [9] was > 100 µM.

`CC(Nc1cc(Cl)cc(Cl)c1)c1ccncc1` (stereo not drawn) was tested, and the TGI [1] was 58 µM, the TGI [2] was 36.7 µM and the TGI [3] was 59.9 µM. The TGI [4] was > 100 µM, the TGI [5] was 25 µM and the TGI [6] was > 100 µM. For the same compound, the TGI [7] was 88.8 µM, the TGI [8] was > 100 µM and the TGI [9] was 35.7 µM.

`CC1CC[C@]2(C(=O)O)CCC3(C)C(=C2[C@H]1C)C=CC1[C@@]2(C)CC[C@H](O)C(C)(C)C2CC[C@]13C` (stereo partly drawn) was tested, and the TGI [1] was > 100 µM, the TGI [2] was 80.1 µM and the TGI [3] was > 100 µM. The TGI [4] was > 100 µM, the TGI [5] was > 100 µM and the TGI [6] was 62.6 µM. For the same compound, the TGI [7] was > 100 µM, the TGI [8] was > 100 µM and the TGI [9] was 73.1 µM.

For `CN(C)Cc1cc(C(=O)O)cc(CN(C)C)c1O`, the TGI [1] was > 100 µM, the TGI [2] was > 100 µM and the TGI [3] was > 100 µM. The TGI [4] was > 100 µM, the TGI [5] was > 100 µM and the TGI [6] was > 100 µM. For the same compound, the TGI [7] was > 100 µM, the TGI [8] was > 100 µM and the TGI [9] was > 100 µM.
